The source of these data is ChEMBL document CHEMBL3779861, “Selective Inhibition of CBX6: A Methyllysine Reader Protein in the Polycomb Family” (ACS Med Chem Lett, 2016).

The target in test [1] is T1, Chromobox protein homolog 2 (Homo sapiens, UniProt Q14781).
T1 sequence (Q14781 whole entry): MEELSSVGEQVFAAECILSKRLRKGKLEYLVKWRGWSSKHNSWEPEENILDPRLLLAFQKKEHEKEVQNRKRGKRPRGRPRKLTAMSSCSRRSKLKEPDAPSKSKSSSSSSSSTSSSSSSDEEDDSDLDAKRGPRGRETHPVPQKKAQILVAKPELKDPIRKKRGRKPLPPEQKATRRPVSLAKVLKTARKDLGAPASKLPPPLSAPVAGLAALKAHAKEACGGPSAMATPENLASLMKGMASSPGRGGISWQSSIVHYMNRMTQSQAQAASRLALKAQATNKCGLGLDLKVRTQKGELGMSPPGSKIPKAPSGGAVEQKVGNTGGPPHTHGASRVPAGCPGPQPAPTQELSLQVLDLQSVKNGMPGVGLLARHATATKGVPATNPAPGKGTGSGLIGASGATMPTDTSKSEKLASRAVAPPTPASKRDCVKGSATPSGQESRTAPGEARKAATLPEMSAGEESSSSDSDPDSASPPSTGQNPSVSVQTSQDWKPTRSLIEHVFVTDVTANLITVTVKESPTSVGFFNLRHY
As to the kind of experiment: Binding affinity to N-terminal His6-tagged human CBX2 (8 to 62) expressed in Escherichia coli BL21 using FITC-peptide-3 as competitive binding probe by fluorescence polarization assay. (Fluorescence polarisation rises when a labelled molecule tumbles more slowly, as on binding a larger partner.)

Test [2] addresses T2, E3 SUMO-protein ligase CBX4 (Homo sapiens, UniProt O00257).
T2 sequence (O00257 whole entry): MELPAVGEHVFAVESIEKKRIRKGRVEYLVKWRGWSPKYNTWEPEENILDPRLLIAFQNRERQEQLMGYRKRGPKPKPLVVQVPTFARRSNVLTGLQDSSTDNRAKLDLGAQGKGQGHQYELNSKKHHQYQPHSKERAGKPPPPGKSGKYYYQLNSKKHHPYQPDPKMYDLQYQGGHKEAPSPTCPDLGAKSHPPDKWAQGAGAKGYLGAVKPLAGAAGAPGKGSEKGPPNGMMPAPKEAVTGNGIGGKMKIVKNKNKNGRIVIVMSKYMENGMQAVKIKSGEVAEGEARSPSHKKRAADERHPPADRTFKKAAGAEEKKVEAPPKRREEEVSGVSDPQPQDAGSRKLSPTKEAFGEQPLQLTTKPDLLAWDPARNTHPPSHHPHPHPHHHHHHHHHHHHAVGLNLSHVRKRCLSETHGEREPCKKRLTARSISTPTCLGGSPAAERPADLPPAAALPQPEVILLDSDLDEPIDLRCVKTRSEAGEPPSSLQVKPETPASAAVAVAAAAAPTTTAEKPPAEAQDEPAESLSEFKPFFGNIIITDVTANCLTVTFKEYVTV
As to the kind of experiment: Binding affinity to N-terminal His6-tagged human CBX4 (8 to 65 residues) expressed in Escherichia coli BL21 using FITC-peptide-3 as competitive binding probe by fluorescence polarization assay.

In test [3] the target is T3, Chromobox protein homolog 6 (Homo sapiens, UniProt O95503).
T3 sequence (O95503 whole entry): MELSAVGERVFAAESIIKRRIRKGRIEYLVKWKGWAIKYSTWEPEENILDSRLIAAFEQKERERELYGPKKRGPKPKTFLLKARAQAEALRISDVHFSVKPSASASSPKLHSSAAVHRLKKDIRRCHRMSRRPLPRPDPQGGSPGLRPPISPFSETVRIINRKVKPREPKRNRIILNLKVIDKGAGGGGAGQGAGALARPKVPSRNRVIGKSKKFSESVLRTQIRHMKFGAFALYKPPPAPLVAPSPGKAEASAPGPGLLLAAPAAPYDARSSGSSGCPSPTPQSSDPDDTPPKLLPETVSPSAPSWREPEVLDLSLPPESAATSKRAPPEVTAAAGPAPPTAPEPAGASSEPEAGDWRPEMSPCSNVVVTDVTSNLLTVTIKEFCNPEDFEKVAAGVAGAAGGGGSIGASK
As to the kind of experiment: Binding affinity to N-terminal His6-tagged human CBX6 (8 to 65 residues) expressed in Escherichia coli BL21 using FITC-peptide-3 as competitive binding probe by fluorescence polarization assay.

For test [4], the target named is T4, Chromobox protein homolog 8 (Homo sapiens, UniProt Q9HC52).
T4 sequence (Q9HC52 whole entry): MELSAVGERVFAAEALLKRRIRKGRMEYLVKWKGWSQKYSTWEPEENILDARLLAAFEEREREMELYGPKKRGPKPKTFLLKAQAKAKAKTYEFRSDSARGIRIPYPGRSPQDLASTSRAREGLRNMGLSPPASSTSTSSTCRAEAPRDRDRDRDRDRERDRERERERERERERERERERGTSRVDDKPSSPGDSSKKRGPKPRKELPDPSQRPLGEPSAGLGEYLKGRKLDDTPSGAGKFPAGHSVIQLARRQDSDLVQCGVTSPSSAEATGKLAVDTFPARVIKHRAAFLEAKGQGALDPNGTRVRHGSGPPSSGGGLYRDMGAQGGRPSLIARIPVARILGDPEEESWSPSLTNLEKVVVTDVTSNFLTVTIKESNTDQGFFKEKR
The test is described as follows: Binding affinity to N-terminal His6-tagged human CBX8 (8 to 61 residues) expressed in Escherichia coli BL21 using FITC-peptide-3 as competitive binding probe by fluorescence polarization assay.

In test [5] the target is T5, Chromobox protein homolog 7 (Homo sapiens, UniProt O95931).
T5 sequence (O95931 whole entry): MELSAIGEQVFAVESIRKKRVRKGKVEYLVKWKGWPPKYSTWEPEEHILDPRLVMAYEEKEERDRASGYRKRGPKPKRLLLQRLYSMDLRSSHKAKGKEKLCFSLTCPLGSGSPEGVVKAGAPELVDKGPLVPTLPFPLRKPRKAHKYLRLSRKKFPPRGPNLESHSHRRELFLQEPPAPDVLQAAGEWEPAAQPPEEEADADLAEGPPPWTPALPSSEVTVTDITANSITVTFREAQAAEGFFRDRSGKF
The test is described as follows: Binding affinity to N-terminal His6-tagged human CBX7 (8 to 62) expressed in Escherichia coli BL21 using FITC-peptide-3 as competitive binding probe by fluorescence polarization assay.

Test [6] concerns the target Chromobox protein homolog 1 (Homo sapiens, UniProt P83916).
For test [7], the target named is Chromobox protein homolog 7 (Homo sapiens, UniProt O95931, V13A). As to the kind of experiment: Binding affinity to human CBX7 V13A mutant expressed in Escherichia coli BL21 by surface plasmon resonance assay. For orientation: Surface plasmon resonance follows binding to a sensor surface in real time, without labels.
Test [8] has as its target T3, Chromobox protein homolog 6. As to the kind of experiment: Binding affinity to N-terminal His6-tagged human CBX6 (8 to 65 residues) expressed in Escherichia coli BL21 by surface plasmon resonance assay.
Test [9] addresses T5, Chromobox protein homolog 7. As to the kind of experiment: Binding affinity to N-terminal His6-tagged human CBX7 (8 to 62 residues) expressed in Escherichia coli BL21 by surface plasmon resonance assay.

Non-standard residues stand in square brackets, D forms with d. Residues, ends and D or L forms follow the SMILES beside them. *: point of attachment. X1 = O=C(O)c1cc(NC(=S)*)ccc1-c1c2ccc(=O)cc-2oc2cc(O)ccc12; Biotin = O=C1N[C@H]2[C@H](CS[C@H]2CCCCC(=O)*)N1; Lys(Me3) = C[N+](C)(C)CCCC[C@H](N)C(=O)O; Benzoyl(4-Br) = O=C(c1ccc(Br)cc1)*; Abu = CC[C@H](N)C(=O)O

Usually Kd stands for the equilibrium constant for the complex coming apart. Lower therefore signals tighter binding. In general, IC50 refers to the midpoint of a concentration-inhibition curve. Low readings indicate greater potency, high ones weaker potency.

Sequence of Chromobox protein homolog 1 (P83916 whole entry): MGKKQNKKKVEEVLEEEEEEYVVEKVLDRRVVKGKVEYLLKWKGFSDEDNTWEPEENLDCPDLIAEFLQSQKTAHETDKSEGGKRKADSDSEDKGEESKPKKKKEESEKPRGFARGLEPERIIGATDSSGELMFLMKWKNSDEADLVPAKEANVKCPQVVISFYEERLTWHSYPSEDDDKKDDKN
Sequence of Chromobox protein homolog 7 (Homo sapiens, UniProt O95931, V13A) (O95931 whole entry V13A, the tested form may be a part): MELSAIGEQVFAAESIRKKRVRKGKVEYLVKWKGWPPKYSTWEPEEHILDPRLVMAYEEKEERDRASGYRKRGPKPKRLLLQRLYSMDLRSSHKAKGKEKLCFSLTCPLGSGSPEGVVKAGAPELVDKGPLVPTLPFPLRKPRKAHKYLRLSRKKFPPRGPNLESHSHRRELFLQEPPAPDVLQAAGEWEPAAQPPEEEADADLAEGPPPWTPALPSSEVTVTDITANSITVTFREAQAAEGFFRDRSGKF

For the molecule `CC[C@H](NC(=O)[C@H](Cc1ccccc1)NC(=O)c1ccc(Br)cc1)C(=O)N[C@@H](Cc1ccc(O)cc1)C(=O)N[C@@H](CCCC[N+](C)(C)C)C(=O)N[C@@H](CO)C(=O)N[C@@H](CCC(=O)O)C(=O)N[C@@H](CCCCNC(=S)Nc1ccc(-c2c3ccc(=O)cc-3oc3cc(O)ccc23)c(C(=O)O)c1)C(N)=O` ({Benzoyl(4-Br)}-F[Abu]Y[Lys(Me3)]SEK(X1)-NH2), the Kd was found to be 1600 nM in test [1]; 800 nM in test [2]; 800 nM in test [3]; 1000 nM in [4]; 400 nM in test [5]; 75 µM in [6].
In the case of `CC(C)[C@H](NC(=O)[C@H](Cc1ccccc1)NC(=O)c1ccc(Br)cc1)C(=O)N[C@@H](Cc1ccc(O)cc1)C(=O)N[C@@H](CCCC[N+](C)(C)C)C(=O)N[C@@H](CO)C(=O)N[C@@H](CCC(=O)O)C(=O)N[C@@H](CCCCNC(=S)Nc1ccc(-c2c3ccc(=O)cc-3oc3cc(O)ccc23)c(C(=O)O)c1)C(N)=O` ({Benzoyl(4-Br)}-FVY[Lys(Me3)]SEK(X1)-NH2), the Kd turned out to be 17600 nM in test [1]; 15500 nM in test [2]; 900 nM in test [3]; 6000 nM in [4]; 5300 nM in test [5]; 78.4 µM in test [6].
The molecule `C[C@H](NC(=O)[C@H](Cc1ccccc1)NC(=O)c1ccc(Br)cc1)C(=O)N[C@@H](Cc1ccc(O)cc1)C(=O)N[C@@H](CCCC[N+](C)(C)C)C(=O)N[C@@H](CO)C(N)=O` ({Benzoyl(4-Br)}-FAY[Lys(Me3)]S-NH2) registered an IC50 in test [5] of 1700 nM.
Regarding `C[C@H](NC(=O)[C@H](Cc1ccccc1)NC(=O)c1ccc(Br)cc1)C(=O)N[C@@H](Cc1ccc(O)cc1)C(=O)N[C@@H](CCCC[N+](C)(C)C)C(=O)N[C@@H](CO)C(=O)N[C@@H](CCC(=O)O)C(=O)N[C@@H](CCCCNC(=O)CCCC[C@@H]1SC[C@@H]2NC(=O)N[C@@H]21)C(N)=O` ({Benzoyl(4-Br)}-FAY[Lys(Me3)]SEK(Biotin)-NH2), the dissociation constant Kd in [7] was 0.29 µM; in test [8], 110 nM; in test [9], 0.16 µM.
With `CC(C)[C@H](NC(=O)[C@H](Cc1ccccc1)NC(=O)c1ccc(Br)cc1)C(=O)N[C@@H](Cc1ccc(O)cc1)C(=O)N[C@@H](CCCC[N+](C)(C)C)C(=O)N[C@@H](CO)C(=O)N[C@@H](CCC(=O)O)C(=O)N[C@@H](CCCCNC(=O)CCCC[C@@H]1SC[C@@H]2NC(=O)N[C@@H]21)C(N)=O` ({Benzoyl(4-Br)}-FVY[Lys(Me3)]SEK(Biotin)-NH2), the values for the Kd in test [7], in test [8] and in [9] were 24 µM, 910 nM and 34 µM, respectively.
For `C[C@H](NC(=O)[C@H](Cc1ccccc1)NC(=O)c1ccc(Br)cc1)C(=O)N[C@@H](Cc1ccc(O)cc1)C(=O)N[C@@H](CCCC[N+](C)(C)C)C(=O)N[C@@H](CO)C(=O)N[C@@H](CCC(=O)O)C(=O)N[C@@H](CCCCNC(=S)Nc1ccc(-c2c3ccc(=O)cc-3oc3cc(O)ccc23)c(C(=O)O)c1)C(N)=O` ({Benzoyl(4-Br)}-FAY[Lys(Me3)]SEK(X1)-NH2), the Kd was 300 nM in test [1]; 200 nM in [2]; 300 nM in test [3]; 1000 nM in [4]; 100 nM in [5]; 5.5 µM in test [6].
